Reference: PMC12663132, “Assessment of cytotoxicity of some synthetic compounds against breast carcinoma spheroids with subsequent analysis of pro-apoptotic and gene expression” (Scientific Reports, 2025)

Key:
[1] = test system: MCF7; test: Cytotoxicity on MCF7 monolayers (MTT assay); settings: Homo sapiens, MCF7, 72 h, read-out: Mean of % cytotoxicity ± SD
Procedure: (§1) Eighty pre-plated synthetic chemical compounds were screened on two human cell lines: MCF7 (ATCC® HTB-22™), a Caucasian breast adenocarcinoma model, and hTERT-RPE-1 (ATCC® CRL-4000™), a normal retinal epithelial cell line immortalized by hTERT telomerase. […] The cells were cultured in DMEM-F12 medium supplemented with L-glutamine and 10% fetal bovine serum, all were purchase from Biowest (Biotechnology company in Nuaillé, France), and maintained in a controlled incubator environment set at 37 °C with 5% CO2 and 95% humidity.
MCF7 cells were seeded in flat-bottom 96-well plates with a concentration of 20,000 cells/well, and were left overnight. The compounds were tested at a final concentration of 50 µM. Doxorubicin was used as a positive control and 0.5% DMSO as a negative control. The treatment duration was 72 h. The cytotoxicity was then assessed using the MTT assay, as described by Mosmann[43].

[2] = test system: MCF7 3D spheroids; test: Cytotoxicity on MCF7 3D multicellular spheroids (acid phosphatase method); settings: Homo sapiens, MCF7, 120 h, read-out: Mean of % cytotoxicity ± S.D
Procedure: as §1
3-D spheroid models were generated from MCF7 cancer and hTERT-RPE1 normal cells were seeded at 10,000 and 50,000 cells/well, respectively, in poly-HEMA coated round bottom plates according to the protocol previously mentioned[44]. The cells were incubated for 5 days to generate the spheroids with diameter of 500 ± 20 µm. The spheroids were imaged using Olympus S100, U-CMAD3 camera connected to Olympus inverted microscope and the diameter of the spheroids was measured using Cellscen-Entry software. Test compounds were added in triplicate to a final concentration of 50 µM and were incubated for 120 h. […] At the end of incubation, cytotoxicity was determined using the acid phosphatase method[45]. After washing twice with 250 μL PBS buffer, 100 μL of 0.1 M sodium citrate, 0.1% Triton X-100, p-nitrophenylphosphate (2 mg/ml) (Pierce Biotechnology Inc., Rockford, IL) was added to each well and incubated for 1.5 h at 37 °C. After incubation, 10 μL of 1N NaOH stop solution was added to each well, and absorbance was read at 405 nm. Cytotoxicity was calculated according to the following equation:

| Compound | cytotoxicity at 50 µM [1] | cytotoxicity at 50 µM [2] |
| --- | --- | --- |
| COc1cc(-n2c(SC)nc3ccccc3c2=O)c(OC)cc1Cl [A02, 3-(4-chloro-2,5-dimethoxyphenyl)-2-(methylthio)-3,4-dihydroquinazolin-4-one] | 94.3 ± 0.06% | 67.1 ± 3.3% |
| Cc1nn(-c2ccccc2)nc1C(=O)Nc1cc(Cl)cc(Cl)c1 [A03, N4-(3,5-dichlorophenyl)-5-methyl-2-phenyl-2H-1,2,3-triazole-4-carboxamide] | 94.2 ± 0.65% | 39.1 ± 0.24% |
| O=[N+]([O-])c1ccc(N2CCC(n3cccc3)CC2)cc1 [A04, 1-(4-nitrophenyl)-4-(1H-pyrrol-1-yl)piperidine] | 2.5 ± 0.35% | 43.1 ± 0.23% |
| CCOC(=O)c1cnn(C(=O)c2snnc2C)c1N [A05, Ethyl 5-amino-1-[(4-methyl-1,2,3-thiadiazol-5-yl)carbonyl]-1H-pyrazole-4-carboxylate] | 62.3 ± 2.5% | 49 ± 0.8% |
| Nc1ccc(-c2ccc(N)c([N+](=O)[O-])c2)cc1[N+](=O)[O-] [A06, 3,3'-dinitro[1,1'-biphenyl]-4,4'-diamine] | 82.4 ± 0.41% | 60.8 ± 1% |
| O=C(O)c1nccnc1C(=O)Nc1ccccc1N1CCOCC1 [A08, 3-[(2-morpholinoanilino)carbonyl]-2-pyrazinecarboxylic acid] | 17.2 ± 1% | 49.3 ± 0.53% |
| O=C(Nc1cc(-c2ccccc2)n[nH]1)C1COc2ccccc2O1 (centres unmarked) [A09, N2-(3-phenyl-1H-pyrazol-5-yl)-2,3-dihydro-1,4-benzodioxine-2-carboxamide] | 100 ± 0.003% | 52.2 ± 1.9% |
| CCCS(=O)(=O)c1cscc1NC(=O)c1c(-c2c(F)cccc2Cl)noc1C [A10, N4-[4-(propylsulfonyl)-3-thienyl]-3-(2-chloro-6-fluorophenyl)-5-methylisoxazole-4-carboxamide] | 53.8 ± 4.9% | 68.6 ± 1.1% |
| Clc1ccc(CSc2ncnc3c2sc2nnc(-c4ccccc4)c(-c4ccccc4)c23)cc1 [A11, 8-[(4-chlorobenzyl)sulfanyl]-3,4-diphenylpyrimido [4',5':4,5]thieno[2,3-c]pyridazine] | 44.2 ± 1.6% | 46.4 ± 1.3% |
| CCOC(=O)c1ccc(-n2c(=S)[nH]c3ccccc32)cc1 [B02, ethyl 4-(2-thioxo-2,3-dihydro-1H-benzimidazol-1-yl)benzoate] | 100 ± 0.003% | 35.7 ± 1.8% |
| O=C(NCCc1ccncc1)C(F)(F)F [B03, N1-[2-(4-pyridyl)ethyl]-2,2,2-trifluoroacetamide] | 0% | 25.5 ± 0.11% |
| Cc1ncc(CO)c(C=NO)c1O [B04, 3-hydroxy-5-(hydroxymethyl)-2-methylisonicotinaldehyde oxime] | -58.5 ± 0.003% | 49.3 ± 0.35% |
| COC(=O)C(C#N)=Cc1cccn1-c1ccc(C(F)(F)F)cc1 [B05, methyl 2-cyano-3-{1-[4-(trifluoromethyl)phenyl]-1H-pyrrol-2-yl}acrylate] | 91.3 ± 0.6% | 42.1 ± 1.9% |
| CC(=O)Cc1nsc(Nc2ccccc2)n1 [B06, 1-(5-anilino-1,2,4-thiadiazol-3-yl)acetone] | 14.8 ± 2.6% | 20.4 ± 0.35% |
| CC(C)=NOC(=O)c1scc(S(C)(=O)=O)c1Cl [B07, 3-chloro-2-({[(1methylethylidene)amino]oxy}carbonyl)-4-(methylsulfonyl)thiophene] | 0% | 34.9 ± 1.7% |
| c1cc2c(cc1N=C1SCC3CCCCN13)OCO2 (centres unmarked) [B08, N-hexahydro[1,3]thiazolo[3,4-a]pyridin-3-ylidene-1,3-benzodioxol-5-amine] | 8.5 ± 0.47% | 53.1 ± 0.6% |
| O=C1NC(=O)C(=Cc2ccncc2)C(=O)N1 [B09, 5-(4-pyridylmethylidene)hexahydropyrimidine-2,4,6-trione] | 12.3 ± 0.7% | 59.2 ± 1.2% |
| COc1cccc2c1C(=O)c1c(O)c3c(c(O)c1C2=O)C[C@@](O)(C(=O)CO)C[C@@H]3O[C@H]1C[C@H](N)[C@H](O)[C@H](C)O1 [doxorubicin, reference compound] | 57.6 ± 2.1% |  |
